Assay results: paper PMC10455244, “Alpha-Mangostin: A Potent Inhibitor of TRPV3 and Pro-Inflammatory Cytokine Secretion in Keratinocytes” (International Journal of Molecular Sciences, 2023)

Test system: IL-6
Experiment: ELISA, carvacrol-induced IL-6 release in NHEK
Assay type: cell-based, human
Conditions: 1 µM with 300 µM carvacrol, 24 h
Excerpt: Constitutive activation of TRPV3 due to continuous stimulation or the presence of Olmsted mutations causes noticeable skin inflammation due to the increased secretion of pro-inflammatory cytokines from the keratinocytes. Besides, in atopic dermatitis (AD), cytokine release from keratinocytes contributes to the inflammatory environment, which drives many characteristic AD symptoms. Therefore, we determined the effect of TRPV3 activation on cytokine release instead of TRPV3 expression and evaluated whether alpha-mangostin suppressed TRPV3-mediated cytokine secretion in normal human keratinocytes. The levels of secreted cytokines (interleukin (IL)-6, IL-8, and tumor necrosis factor-alpha (TNF-α)) were measured using enzyme-linked Immunosorbent assay (ELISA) kits due to their high sensitivity and quantitation ability. The cells were induced with 300 µM carvacrol, with or without 1 µM alpha-mangostin, and 10 µM 74a.
Figure 5 Alpha-mangostin (α-MG) inhibited carvacrol-induced cytokine release in NHEK cells and rescued carvacrol-induced cell death. (A) Alpha-mangostin inhibited the carvacrol-induced release of IL-8 and IL-6 in NHEK. Cells were induced by 300 µM carvacrol with or without either 1 µM alpha-mangostin or 10 µM 74a for 24 h before the ELISA assay. (B) Alpha-mangostin reduced cell death caused by carvacrol in human keratinocytes. […]

COc1c(O)cc2oc3cc(O)c(CC=C(C)C)c(O)c3c(=O)c2c1CC=C(C)C [Alpha-mangostin]
Effect on IL-6 levels: slightly decreased
